Data taken from ChEMBL document CHEMBL3102747, “Discovery of novel N-(5-(arylcarbonyl)thiazol-2-yl)amides and N-(5-(arylcarbonyl)thiophen-2-yl)amides as potent RORγt inhibitors” (Bioorg Med Chem, 2014).

Test system: Mus musculus
Assay: Dose normalized AUC (0 to infinity) in C57BL/6 mouse at 10 mg/kg, po
Format: ADME, organism-based
Set-up: dose 10 mg/kg, route oral
Conditions: in vivo

| Compound | AUC/dose [ng·h/mL/mg/kg] |
| --- | --- |
| CCS(=O)(=O)c1ccc(CC(=O)Nc2nc(-c3cccc(Cl)c3)c(C(=O)c3ccccc3Cl)s2)cc1 | 448 |

Test system: not listed separately
Assay: Cmax in C57BL/6 mouse blood at 10 mg/kg, po
Format: ADME, organism-based
Set-up: dose 10 mg/kg, route oral
Conditions: not given

| Compound | Cmax [ng/mL] |
| --- | --- |
| CCS(=O)(=O)c1ccc(CC(=O)Nc2nc(-c3cccc(Cl)c3)c(C(=O)c3ccccc3Cl)s2)cc1 | 1550 |

Test system: not listed separately
Assay: Cmax in C57BL/6 mouse at 2 mg/kg, po
Format: ADME, organism-based
Set-up: dose 2 mg/kg, route oral
Conditions: in vivo

| Compound | Cmax [ng/mL] |
| --- | --- |
| CCS(=O)(=O)c1ccc(CC(=O)Nc2cc(-c3cccc(Cl)c3)c(C(=O)c3ccccc3Cl)s2)cc1 | 23.3 |
| CCS(=O)(=O)c1ccc(CC(=O)Nc2cc(-c3cccc(Cl)c3)c(C(=O)c3cccc(F)c3)s2)cc1 | 25.8 |

Test system: not listed separately
Assay: Half life in C57BL/6 mouse at 1 mg/kg, iv
Format: ADME, organism-based
Set-up: dose 1 mg/kg, route intravenous
Conditions: in vivo

| Compound | half-life [min] |
| --- | --- |
| CCS(=O)(=O)c1ccc(CC(=O)Nc2cc(-c3cccc(Cl)c3)c(C(=O)c3ccccc3Cl)s2)cc1 | 47.4 |
| CCS(=O)(=O)c1ccc(CC(=O)Nc2cc(-c3cccc(Cl)c3)c(C(=O)c3cccc(F)c3)s2)cc1 | 39 |
| CCS(=O)(=O)c1ccc(CC(=O)Nc2nc(-c3cccc(Cl)c3)c(C(=O)c3ccccc3Cl)s2)cc1 | 60 |

Biological target: T1, Nuclear receptor ROR-gamma (Homo sapiens, UniProt P51449)
T1 sequence (P51449 whole entry): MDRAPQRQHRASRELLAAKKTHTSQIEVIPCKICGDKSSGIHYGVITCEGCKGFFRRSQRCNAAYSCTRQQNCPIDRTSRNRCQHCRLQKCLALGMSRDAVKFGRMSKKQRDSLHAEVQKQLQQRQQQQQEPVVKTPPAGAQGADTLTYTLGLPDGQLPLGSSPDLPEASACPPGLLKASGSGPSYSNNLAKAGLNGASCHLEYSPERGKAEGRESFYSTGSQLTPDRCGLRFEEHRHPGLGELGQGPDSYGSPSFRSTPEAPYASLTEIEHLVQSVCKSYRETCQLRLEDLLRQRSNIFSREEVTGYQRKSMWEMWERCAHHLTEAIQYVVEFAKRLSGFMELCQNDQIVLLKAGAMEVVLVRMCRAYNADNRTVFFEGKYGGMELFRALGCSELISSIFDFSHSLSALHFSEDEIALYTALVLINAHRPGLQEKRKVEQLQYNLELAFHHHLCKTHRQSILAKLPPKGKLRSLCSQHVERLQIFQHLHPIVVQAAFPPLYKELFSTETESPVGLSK
Assay: Inhibition of APC-labeled RORgammat receptor ligand binding domain (unknown origin) after 1 hr by FRET assay
Conditions: not given

| Compound | IC50 [nM] |
| --- | --- |
| O=C(Cc1ccccc1)Nc1nc(-c2cc(Cl)ccc2Cl)cs1 | 10000 |
| CCS(=O)(=O)c1ccc(CC(=O)Nc2cc(-c3cccc(Cl)c3)c(C(=O)c3ccccc3)s2)cc1 | 12.6 |
| CCS(=O)(=O)c1ccc(CC(=O)Nc2nc(-c3ccc(Cl)cc3)c(C(=O)c3ccccc3)s2)cc1 | 39.8 |
| CCS(=O)(=O)c1ccc(CC(=O)Nc2nc(-c3cccc(Cl)c3)c(C(=O)c3ccccc3F)s2)cc1 | 20 |
| CCS(=O)(=O)c1ccc(CC(=O)Nc2cc(-c3cccc(Cl)c3)c(C(=O)c3ccccc3Cl)s2)cc1 | 10 |
| CCc1sc(NC(=O)Cc2ccc(S(=O)(=O)CC)cc2)nc1-c1ccccc1 | 5010 |
| O=C(Cc1ccc(S(=O)(=O)C2CCCCC2)cc1)Nc1nc(-c2cc(Cl)ccc2Cl)cs1 | > 25100 |
| O=C(CC1CCCCC1)Nc1nc(-c2cc(Cl)ccc2Cl)cs1 | > 25100 |
| CCS(=O)(=O)c1ccc(CC(=O)Nc2cc(-c3cccc(Cl)c3)c(C(=O)c3cccc(Cl)c3)s2)cc1 | 7.94 |
| CCS(=O)(=O)c1ccc(CC(=O)Nc2nc(-c3cccc(Cl)c3)c(C(=O)c3cccc(Cl)c3)s2)cc1 | 10 |
| CCS(=O)(=O)c1ccc(CC(=O)Nc2cc(-c3cccc(Cl)c3)c(C(=O)c3cccc(F)c3)s2)cc1 | 12.6 |
| CCS(=O)(=O)c1ccc(CC(=O)Nc2nc(-c3ccc(Cl)cc3Cl)cs2)cc1 | 1260 |
| CCS(=O)(=O)c1ccc(CC(=O)Nc2nc(-c3cccc(Cl)c3)c(C(=O)c3ccccc3Cl)s2)cc1 | 15.8 |
| CCS(=O)(=O)c1ccc(CC(=O)Nc2nc(C)cs2)cc1 | > 25100 |
| CCS(=O)(=O)c1ccc(CC(=O)Nc2nc(-c3c(Cl)cccc3Cl)cs2)cc1 | 6310 |
| CCS(=O)(=O)c1ccc(CC(=O)Nc2nc(-c3cccc(Cl)c3)cs2)cc1 | 3980 |
| CCS(=O)(=O)c1ccc(CC(=O)Nc2nc(-c3ccccc3Cl)cs2)cc1 | 2000 |
| CC(C)S(=O)(=O)c1ccc(CC(=O)Nc2nc(-c3cc(Cl)ccc3Cl)cs2)cc1 | 5010 |
| CCS(=O)(=O)c1ccc(CC(=O)Nc2nc(-c3cccc(C#N)c3)c(C(=O)c3ccccc3)s2)cc1 | 31.6 |
| CC(C)CC(=O)Nc1nc(-c2cc(Cl)ccc2Cl)cs1 | > 25100 |
| CCS(=O)(=O)c1ccc(CC(=O)Nc2nc(C3CCCCC3)cs2)cc1 | 1580 |
| CS(=O)(=O)c1ccc(CC(=O)Nc2nc(-c3cc(Cl)ccc3Cl)cs2)cc1 | 3980 |
| CCS(=O)(=O)c1ccc(CC(=O)Nc2nc(-c3ccccc3Cl)c(C(=O)c3ccccc3)s2)cc1 | 39.8 |
| CCS(=O)(=O)c1ccc(CC(=O)Nc2cc(-c3ccccc3)c(C(=O)c3ccccc3)s2)cc1 | 10 |
| CCS(=O)(=O)c1ccc(CC(=O)Nc2nc(-c3ccccc3)c(C(=O)OC)s2)cc1 | 10000 |
| CCS(=O)(=O)c1ccc(CC(=O)Nc2nc(-c3cccc(Cl)c3)c(C(=O)c3cccc(F)c3)s2)cc1 | 25.1 |

Test system: not listed separately
Assay: Clearance in C57BL/6 mouse at 1 mg/kg, iv
Format: ADME, organism-based
Set-up: dose 1 mg/kg, route intravenous
Conditions: in vivo

| Compound | clearance [mL/min/kg] |
| --- | --- |
| CCS(=O)(=O)c1ccc(CC(=O)Nc2cc(-c3cccc(Cl)c3)c(C(=O)c3ccccc3Cl)s2)cc1 | 61.4 |
| CCS(=O)(=O)c1ccc(CC(=O)Nc2cc(-c3cccc(Cl)c3)c(C(=O)c3cccc(F)c3)s2)cc1 | 24 |
| CCS(=O)(=O)c1ccc(CC(=O)Nc2nc(-c3cccc(Cl)c3)c(C(=O)c3ccccc3Cl)s2)cc1 | 17.8 |

Test system: not listed separately
Assay: Volume of distribution at steady state in C57BL/6 mouse at 1 mg/kg, iv
Format: ADME, organism-based
Set-up: dose 1 mg/kg, route intravenous
Conditions: in vivo, read-out: Vdss

| Compound | Vd [L/kg] |
| --- | --- |
| CCS(=O)(=O)c1ccc(CC(=O)Nc2cc(-c3cccc(Cl)c3)c(C(=O)c3ccccc3Cl)s2)cc1 | 1.85 |
| CCS(=O)(=O)c1ccc(CC(=O)Nc2cc(-c3cccc(Cl)c3)c(C(=O)c3cccc(F)c3)s2)cc1 | 1.1 |
| CCS(=O)(=O)c1ccc(CC(=O)Nc2nc(-c3cccc(Cl)c3)c(C(=O)c3ccccc3Cl)s2)cc1 | 1.24 |

Test system: Mus musculus
Assay: Dose normalized AUC (0 to infinity) in C57BL/6 mouse at 2 mg/kg, po
Format: ADME, organism-based
Set-up: dose 2 mg/kg, route oral
Conditions: in vivo

| Compound | AUC/dose [ng·h/mL/mg/kg] |
| --- | --- |
| CCS(=O)(=O)c1ccc(CC(=O)Nc2cc(-c3cccc(Cl)c3)c(C(=O)c3ccccc3Cl)s2)cc1 | 10 |
| CCS(=O)(=O)c1ccc(CC(=O)Nc2cc(-c3cccc(Cl)c3)c(C(=O)c3cccc(F)c3)s2)cc1 | 34 |

Biological target: T2, Nuclear receptor ROR-gamma (Homo sapiens) (UniProt P51449)
T2 sequence (whole entry): T1 sequence (P51449 whole entry)
Conditions: not given

| Compound | ΔTm [°C] |
| --- | --- |
| CCS(=O)(=O)c1ccc(CC(=O)Nc2cc(-c3cccc(Cl)c3)c(C(=O)c3ccccc3Cl)s2)cc1 | 15.3 |
| CCS(=O)(=O)c1ccc(CC(=O)Nc2cc(-c3cccc(Cl)c3)c(C(=O)c3cccc(F)c3)s2)cc1 | 14.8 |
| CCS(=O)(=O)c1ccc(CC(=O)Nc2nc(-c3cccc(Cl)c3)c(C(=O)c3ccccc3Cl)s2)cc1 | 11.3 |

Biological target: T3, Nuclear receptor ROR-gamma (Mus musculus, UniProt P51450)
T3 sequence (P51450 whole entry): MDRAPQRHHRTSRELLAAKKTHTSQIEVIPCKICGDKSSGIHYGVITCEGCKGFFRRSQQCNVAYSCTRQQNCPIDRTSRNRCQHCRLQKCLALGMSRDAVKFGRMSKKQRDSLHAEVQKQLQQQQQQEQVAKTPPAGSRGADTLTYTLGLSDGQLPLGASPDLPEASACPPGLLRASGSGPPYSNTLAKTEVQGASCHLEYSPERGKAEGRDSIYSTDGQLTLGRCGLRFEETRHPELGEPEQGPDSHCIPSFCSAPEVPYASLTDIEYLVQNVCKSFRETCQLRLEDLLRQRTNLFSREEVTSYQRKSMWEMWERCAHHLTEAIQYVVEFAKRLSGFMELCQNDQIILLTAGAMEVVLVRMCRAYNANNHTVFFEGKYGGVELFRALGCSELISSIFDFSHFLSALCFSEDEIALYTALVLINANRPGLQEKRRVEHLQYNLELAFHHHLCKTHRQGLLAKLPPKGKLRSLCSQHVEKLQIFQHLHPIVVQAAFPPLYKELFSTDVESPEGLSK
Assay: Inhibition of RORgammat receptor ligand binding domain in mouse spleen CD4+ T cells assessed as inhibition of IL-17 production after 3 days by ELISA
Format: cell-based, T-cell
Conditions: not given

| Compound | IC50 [nM] |
| --- | --- |
| CCS(=O)(=O)c1ccc(CC(=O)Nc2cc(-c3cccc(Cl)c3)c(C(=O)c3ccccc3)s2)cc1 | 10 |
| CCS(=O)(=O)c1ccc(CC(=O)Nc2nc(-c3ccc(Cl)cc3)c(C(=O)c3ccccc3)s2)cc1 | 794 |
| CCS(=O)(=O)c1ccc(CC(=O)Nc2nc(-c3cccc(Cl)c3)c(C(=O)c3ccccc3F)s2)cc1 | 316 |
| CCS(=O)(=O)c1ccc(CC(=O)Nc2cc(-c3cccc(Cl)c3)c(C(=O)c3ccccc3Cl)s2)cc1 | 25.1 |
| CCS(=O)(=O)c1ccc(CC(=O)Nc2cc(-c3cccc(Cl)c3)c(C(=O)c3cccc(Cl)c3)s2)cc1 | 25.1 |
| CCS(=O)(=O)c1ccc(CC(=O)Nc2nc(-c3cccc(Cl)c3)c(C(=O)c3cccc(Cl)c3)s2)cc1 | 251 |
| CCS(=O)(=O)c1ccc(CC(=O)Nc2cc(-c3cccc(Cl)c3)c(C(=O)c3cccc(F)c3)s2)cc1 | 15.8 |
| CCS(=O)(=O)c1ccc(CC(=O)Nc2nc(-c3cccc(Cl)c3)c(C(=O)c3ccccc3Cl)s2)cc1 | 200 |
| CCS(=O)(=O)c1ccc(CC(=O)Nc2nc(-c3cccc(C#N)c3)c(C(=O)c3ccccc3)s2)cc1 | 158 |
| CCS(=O)(=O)c1ccc(CC(=O)Nc2nc(-c3ccccc3Cl)c(C(=O)c3ccccc3)s2)cc1 | 398 |
| CCS(=O)(=O)c1ccc(CC(=O)Nc2cc(-c3ccccc3)c(C(=O)c3ccccc3)s2)cc1 | 50.1 |
| CCS(=O)(=O)c1ccc(CC(=O)Nc2nc(-c3cccc(Cl)c3)c(C(=O)c3cccc(F)c3)s2)cc1 | 200 |

Biological target: T1, Nuclear receptor ROR-gamma
Assay: Displacement of 25-[26,27-3H]hydroxycholesterol from RORgammat receptor ligand binding domain (unknown origin) after 60 mins
Conditions: not given

| Compound | Ki [nM] |
| --- | --- |
| CCS(=O)(=O)c1ccc(CC(=O)Nc2cc(-c3cccc(Cl)c3)c(C(=O)c3ccccc3Cl)s2)cc1 | 25.1 |
| CCS(=O)(=O)c1ccc(CC(=O)Nc2cc(-c3cccc(Cl)c3)c(C(=O)c3cccc(F)c3)s2)cc1 | 31.6 |
| CCS(=O)(=O)c1ccc(CC(=O)Nc2nc(-c3cccc(Cl)c3)c(C(=O)c3ccccc3Cl)s2)cc1 | 39.8 |

Test system: not listed separately
Assay: Oral biavailability in C57BL/6 mouse at 2 mg/kg
Format: ADME, organism-based
Set-up: dose 2 mg/kg
Conditions: in vivo

| Compound | bioavailability [%] |
| --- | --- |
| CCS(=O)(=O)c1ccc(CC(=O)Nc2cc(-c3cccc(Cl)c3)c(C(=O)c3ccccc3Cl)s2)cc1 | 3.7 |
| CCS(=O)(=O)c1ccc(CC(=O)Nc2cc(-c3cccc(Cl)c3)c(C(=O)c3cccc(F)c3)s2)cc1 | 4.5 |

Test system: not listed separately
Assay: Oral biavailability in C57BL/6 mouse at 10 mg/kg
Format: ADME, organism-based
Set-up: dose 10 mg/kg
Conditions: in vivo

| Compound | bioavailability [%] |
| --- | --- |
| CCS(=O)(=O)c1ccc(CC(=O)Nc2nc(-c3cccc(Cl)c3)c(C(=O)c3ccccc3Cl)s2)cc1 | 48 |

Test system: Mus musculus
Assay: Dose normalized AUC (0 to infinity) in C57BL/6 mouse at 1 mg/kg, iv
Format: ADME, organism-based
Set-up: dose 1 mg/kg, route intravenous
Conditions: in vivo

| Compound | AUC/dose [ng·h/mL/mg/kg] |
| --- | --- |
| CCS(=O)(=O)c1ccc(CC(=O)Nc2cc(-c3cccc(Cl)c3)c(C(=O)c3ccccc3Cl)s2)cc1 | 279 |
| CCS(=O)(=O)c1ccc(CC(=O)Nc2cc(-c3cccc(Cl)c3)c(C(=O)c3cccc(F)c3)s2)cc1 | 764 |
| CCS(=O)(=O)c1ccc(CC(=O)Nc2nc(-c3cccc(Cl)c3)c(C(=O)c3ccccc3Cl)s2)cc1 | 937 |
